Measured values reported in PMC3914206.

Columns and labels:
Assay type in all cases: binding
panel of 442 kinases [1] = target: T1, panel of 442 kinases (Homo sapiens, UniProt Q15835); settings: Compound Concentration 10 µM
T1 construct: purchased KINOMEscan
T1 sequence (Q15835 1-563): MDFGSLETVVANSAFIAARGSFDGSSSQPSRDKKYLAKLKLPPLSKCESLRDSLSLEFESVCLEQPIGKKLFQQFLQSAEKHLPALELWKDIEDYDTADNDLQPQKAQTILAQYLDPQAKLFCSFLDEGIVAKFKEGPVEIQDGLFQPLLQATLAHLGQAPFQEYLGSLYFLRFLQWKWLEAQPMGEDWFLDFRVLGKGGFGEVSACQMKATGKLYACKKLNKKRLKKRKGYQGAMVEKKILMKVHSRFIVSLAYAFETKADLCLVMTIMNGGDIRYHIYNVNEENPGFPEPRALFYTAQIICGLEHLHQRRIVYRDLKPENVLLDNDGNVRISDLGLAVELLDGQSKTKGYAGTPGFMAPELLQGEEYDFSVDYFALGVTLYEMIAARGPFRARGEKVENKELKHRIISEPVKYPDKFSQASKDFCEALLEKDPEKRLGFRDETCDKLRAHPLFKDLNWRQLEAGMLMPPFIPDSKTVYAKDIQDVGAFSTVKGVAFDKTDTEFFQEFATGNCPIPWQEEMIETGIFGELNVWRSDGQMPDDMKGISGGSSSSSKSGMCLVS
Description: (§1) We assessed the selectivity of members of this scaffold using the KINOMEscan methodology across a near comprehensive panel of 442 kinases [[18,27]].

panel of 442 kinases [2] = target: T2, panel of 442 kinases (Homo sapiens, UniProt Q9C098); settings: Compound Concentration 10 µM
T2 construct: purchased KINOMEscan
T2 sequence (Q9C098 whole entry): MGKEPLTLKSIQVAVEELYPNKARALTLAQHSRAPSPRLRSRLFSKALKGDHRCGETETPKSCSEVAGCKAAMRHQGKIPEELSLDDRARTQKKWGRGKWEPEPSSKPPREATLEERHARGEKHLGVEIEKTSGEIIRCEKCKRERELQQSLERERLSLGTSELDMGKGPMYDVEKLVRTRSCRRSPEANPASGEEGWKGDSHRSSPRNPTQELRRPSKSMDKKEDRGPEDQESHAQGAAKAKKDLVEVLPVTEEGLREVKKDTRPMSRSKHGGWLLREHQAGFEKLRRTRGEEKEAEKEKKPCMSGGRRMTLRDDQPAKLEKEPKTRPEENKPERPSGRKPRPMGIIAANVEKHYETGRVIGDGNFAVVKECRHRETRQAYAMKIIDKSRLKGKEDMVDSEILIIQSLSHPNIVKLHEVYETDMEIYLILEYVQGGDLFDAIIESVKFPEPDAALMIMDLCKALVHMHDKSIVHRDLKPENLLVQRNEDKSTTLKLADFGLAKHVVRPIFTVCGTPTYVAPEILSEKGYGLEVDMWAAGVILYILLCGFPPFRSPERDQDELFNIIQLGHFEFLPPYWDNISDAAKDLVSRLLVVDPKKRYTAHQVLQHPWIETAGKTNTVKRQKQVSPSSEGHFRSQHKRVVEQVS
Description: as §1

panel of 442 kinases [3] = target: T3, panel of 442 kinases (Homo sapiens, UniProt O00506); settings: kinase YSK1; compound concentration 10 µM
T3 construct: purchased KINOMEscan
T3 sequence (O00506 whole entry): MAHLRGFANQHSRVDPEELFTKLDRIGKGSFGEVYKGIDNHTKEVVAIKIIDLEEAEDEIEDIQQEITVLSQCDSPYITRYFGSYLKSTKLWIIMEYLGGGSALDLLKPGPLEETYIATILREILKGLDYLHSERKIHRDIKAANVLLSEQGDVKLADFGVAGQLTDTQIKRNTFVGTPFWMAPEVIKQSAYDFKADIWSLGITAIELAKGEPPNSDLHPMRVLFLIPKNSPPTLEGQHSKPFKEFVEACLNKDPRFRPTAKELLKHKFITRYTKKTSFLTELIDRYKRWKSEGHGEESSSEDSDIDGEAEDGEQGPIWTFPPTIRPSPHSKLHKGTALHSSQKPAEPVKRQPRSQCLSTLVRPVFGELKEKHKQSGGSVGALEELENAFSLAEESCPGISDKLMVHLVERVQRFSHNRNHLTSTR
Description: as §1

SMILES | KINOMEscan: GRK1 (panel of 442 kinases [1]) | KINOMEscan: DCAMKL3 (panel of 442 kinases [2]) | % Ctrl, YSK1 (panel of 442 kinases [3]) [% Ctrl]
CCOc1cc(C(=O)N2CCC(N3CCN(C)CC3)CC2)ccc1Nc1ncc2c(n1)N(C1CCCC1)c1ccccc1C(=O)N2C [Compound 26] | 100 | 92 | 90
COc1cc(C(=O)N2CCC(N3CCN(C)CC3)CC2)ccc1Nc1ncc2c(n1)N1CCc3cccc(c31)C(=O)N2C [Compound 24] | – | – | 60
COc1cc(C(=O)N2CCC(N3CCN(C)CC3)CC2)ccc1Nc1ncc2c(n1)N(C)c1ccccc1C(=O)N2C [15 (LRRK2-IN-1)] | 91 | 90 | 68
COc1cc(C(=O)N2CCC(N3CCN(C)CC3)CC2)ccc1Nc1ncc2c(n1)N(C1CCCC1)c1ccccc1C(=O)N2C [Compound 25, 11-cyclopentyl-2-((2-methoxy-4-(4-(4-methylpiperazin-1-yl)piperidine-1-carbonyl)phenyl)amino)-5-methyl-5H-benzo[e]pyrimido[5,4-b][1,4]diazepin-6(11H)-one] | 85 | 100 | 66
